Results published in article PMC7268545, “Development of a QPatch-Automated Electrophysiology Assay for Identifying TMEM16A Small-Molecule Inhibitors” (Assay and Drug Development Technologies, 2020).

Columns and labels:
abc isoform of TMEM16A = target: T1, abc isoform of TMEM16A (Homo sapiens, UniProt Q5XXA6, DEL476-501); assay: QPatch-48 assay on HEK293T cell line stably expressing the abc isoform; format: cell-based; settings: 30 μM
T1 construct: expressed in transfected cells; host or cells: HEK293T
T1 sequence (Q5XXA6 with tags, fused parts or gaps isoform Q5XXA6-5 DEL539-564): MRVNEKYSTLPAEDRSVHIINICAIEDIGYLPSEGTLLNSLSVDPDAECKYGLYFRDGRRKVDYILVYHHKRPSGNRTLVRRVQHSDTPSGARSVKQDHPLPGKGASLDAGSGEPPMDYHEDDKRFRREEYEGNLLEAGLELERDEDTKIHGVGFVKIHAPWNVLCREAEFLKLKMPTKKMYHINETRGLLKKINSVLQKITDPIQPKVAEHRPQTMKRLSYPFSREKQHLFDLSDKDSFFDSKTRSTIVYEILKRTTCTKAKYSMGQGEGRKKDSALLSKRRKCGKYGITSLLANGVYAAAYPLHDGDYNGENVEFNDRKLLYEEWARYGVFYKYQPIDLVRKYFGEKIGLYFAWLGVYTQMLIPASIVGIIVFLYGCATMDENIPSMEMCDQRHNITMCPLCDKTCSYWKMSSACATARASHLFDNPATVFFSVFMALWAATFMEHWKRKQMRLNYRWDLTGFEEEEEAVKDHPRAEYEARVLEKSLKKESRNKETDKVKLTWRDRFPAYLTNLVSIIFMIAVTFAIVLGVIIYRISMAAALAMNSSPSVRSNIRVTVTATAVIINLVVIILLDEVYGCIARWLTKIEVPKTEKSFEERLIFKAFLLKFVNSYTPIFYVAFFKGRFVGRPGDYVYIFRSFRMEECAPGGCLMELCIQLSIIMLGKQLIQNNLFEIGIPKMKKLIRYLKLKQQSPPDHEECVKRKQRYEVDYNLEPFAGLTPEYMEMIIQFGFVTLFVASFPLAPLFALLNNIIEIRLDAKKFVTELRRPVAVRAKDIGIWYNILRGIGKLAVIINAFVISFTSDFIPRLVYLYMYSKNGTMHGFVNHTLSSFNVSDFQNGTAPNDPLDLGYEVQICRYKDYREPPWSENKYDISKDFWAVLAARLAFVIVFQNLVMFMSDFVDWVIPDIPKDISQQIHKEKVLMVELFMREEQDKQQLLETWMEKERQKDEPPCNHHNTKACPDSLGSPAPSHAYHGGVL
Procedure: Using the QPatch-48, we have developed a robust assay for the assessment of TMEM16A small-molecule inhibitors. Many optimization steps were performed to determine the optimal cell culture conditions, internal calcium level, holding potential and voltage protocol, and maximum duration of the assay. It was necessary to control for the culture conditions of the cells and strictly adhere to the cell preparation procedure to obtain high-quality seals. In addition, while the external solution can be used throughout the day, the internal solution should be replaced every 2 h to ensure that the ATP is fresh. Best practices also require solutions to be made weekly and for the osmolarity and pH to be measured accurately. Having met these conditions, the assay results in large currents, averaging a peak current of 6 nA, while maintaining outward rectification that is characteristic of the TMEM16A channel. The benchmark TMEM16A inhibitors that were tested during the validation efforts generated reproducible and expected IC50 values. […] Another HEK293T cell line that stably expressed the abc isoform of TMEM16A also formed high-quality seals and produced large currents.

TMEM16A = target: T2, TMEM16A (Homo sapiens, UniProt Q5XXA6); assay: QPatch-48 assay on HEK293T-derived cell line with doxycycline-induced expression; format: cell-based; settings: 30 μM; expression induced with 10 ng/mL doxycycline
T2 construct: expressed in transfected cells; host or cells: HEK293T-derived, doxycycline-inducible
T2 sequence (Q5XXA6 1-986): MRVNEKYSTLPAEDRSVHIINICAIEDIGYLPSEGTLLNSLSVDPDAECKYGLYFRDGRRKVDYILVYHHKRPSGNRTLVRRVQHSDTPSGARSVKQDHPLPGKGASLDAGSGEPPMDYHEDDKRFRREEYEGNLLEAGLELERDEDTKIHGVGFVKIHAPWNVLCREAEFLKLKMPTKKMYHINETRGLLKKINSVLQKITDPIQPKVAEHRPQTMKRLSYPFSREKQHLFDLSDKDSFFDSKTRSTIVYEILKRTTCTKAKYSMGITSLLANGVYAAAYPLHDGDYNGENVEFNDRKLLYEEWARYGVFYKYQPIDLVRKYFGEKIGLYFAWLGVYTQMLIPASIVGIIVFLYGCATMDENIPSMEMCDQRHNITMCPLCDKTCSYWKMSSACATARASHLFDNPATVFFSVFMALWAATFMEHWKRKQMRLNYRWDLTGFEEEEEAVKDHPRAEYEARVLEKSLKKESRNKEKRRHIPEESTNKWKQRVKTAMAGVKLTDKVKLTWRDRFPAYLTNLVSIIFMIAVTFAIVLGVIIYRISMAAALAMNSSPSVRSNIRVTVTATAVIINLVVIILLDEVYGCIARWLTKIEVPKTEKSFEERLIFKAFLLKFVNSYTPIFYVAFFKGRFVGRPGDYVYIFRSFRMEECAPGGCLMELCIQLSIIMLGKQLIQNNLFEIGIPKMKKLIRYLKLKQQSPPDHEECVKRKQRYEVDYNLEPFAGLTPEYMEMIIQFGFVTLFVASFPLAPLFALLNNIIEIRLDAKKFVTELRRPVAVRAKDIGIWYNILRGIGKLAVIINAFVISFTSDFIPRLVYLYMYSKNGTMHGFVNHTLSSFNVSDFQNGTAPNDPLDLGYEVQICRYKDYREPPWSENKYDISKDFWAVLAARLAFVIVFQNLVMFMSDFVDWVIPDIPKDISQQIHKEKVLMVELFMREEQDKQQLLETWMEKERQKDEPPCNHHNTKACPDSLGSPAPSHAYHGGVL
Procedure: In addition, another cell line that was HEK293T-derived and induced expression of TMEM16A on addition of 10 ng/mL of doxycycline also performed well on the assay. […] These two other cell lines were run on the machine using the predefined parameters that were optimized with the original cells, including the cell preparation protocol. Therefore, it seems that this assay is easily transferable to any cell line expressing TMEM16A.

block of currents (abc isoform of TMEM16A): fully blocked
block of currents (TMEM16A): fully blocked
SMILES: CCc1oc2ccccc2c1C(=O)c1cc(Br)c(O)c(Br)c1 [Benzbromarone]
